US6355799B1, “Substituted benzene compounds, process for their preparation, and herbicidal and defoliant compositions containing them” (ISK Americas Incorporated, priority 1997, dated 2002)

Assays:
Type in all cases: in vivo
[1] = system: upland rice (Oryza sp., var. Tebonnet, RICE); test: Post-emerge test, crop safety; conditions: rating scale 0-100 (0 no damage, 100 complete death), 14 days after application
Outline: (§1)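 Applied at 15–1000 g ai/ha from acetone in 187 l/ha spray volume. Post-emergence applications included 0.25% v/v non-ionic surfactant and reached plants sown 8–21 days before. Pre-emergence applications were incorporated by surface watering. Efficacy or crop damage was rated on a 0–100 scale after 14 days.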

[2] = system: field corn (Zea mays L., var. Dekalb 535, CORN); test: Post-emerge test, crop safety; conditions: rating scale 0-100 (0 no damage, 100 complete death), 14 days after application
Outline: as §1

[3] = system: ivyleaf morningglory (Ipomoea hederacea, IPOHE); test: Pre-emerge test, greenhouse herbicide activity screening; conditions: rating scale 0-100, 14 days after application
Outline: as §1

[4] = system: lambsquarters (Chenopodium album, CHEAL); test: as above; conditions: rating scale 0-100, 14 days after application
Outline: as §1

[5] = system: green foxtail (Setaria viridis, SETVI); test: as above; conditions: rating scale 0-100, 14 days after application
Outline: as §1

[6] = system: large crabgrass (Digitaria sanguinalis, DIGSA); test: as above; conditions: rating scale 0-100, 14 days after application
Outline: as §1

[7] = system: barnyardgrass (Echinochloa crus-galli, ECHCG); test: as above; conditions: rating scale 0-100, 14 days after application
Outline: as §1

[8] = system: johnsongrass (Sorghum halepense, SORHA); test: as above; conditions: rating scale 0-100, 14 days after application
Outline: as §1

[9] = system: velvetleaf (Abutilon theophrasti, ABUTH); test: as above; conditions: rating scale 0-100, 14 days after application
Outline: as §1

[10] = system: sicklepod (Cassia obtusifolia, CASOB); test: as above; conditions: rating scale 0-100, 14 days after application
Outline: as §1

[11] = system: redroot pigweed (Amaranthus retroflexus, AMARE); test: Post-emerge test, greenhouse herbicide activity screening; conditions: rating scale 0-100 (0 no damage, 100 complete death), 14 days after application
Outline: (§2)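 Visual ratings on a 0-100 scale (0 no damage, 100 all plants dead) were taken at 14 days after treatment. Rates of 15-1000 g ai/ha in acetone, 187 l/ha, were sprayed onto soil one day after planting (pre-emerge) or onto 2-3 leaf plants with 0.25% v/v surfactant (post-emerge).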

[12] = system: ivyleaf morningglory (Ipomoea hederacea, IPOHE); test: as above; conditions: rating scale 0-100 (0 no damage, 100 complete death), 14 days after application
Outline: as §2

[13] = system: lambsquarters (Chenopodium album, CHEAL); test: as above; conditions: rating scale 0-100 (0 no damage, 100 complete death), 14 days after application
Outline: as §2

[14] = system: green foxtail (Setaria viridis, SETVI); test: as above; conditions: rating scale 0-100 (0 no damage, 100 complete death), 14 days after application
Outline: as §2

[15] = system: large crabgrass (Digitaria sanguinalis, DIGSA); test: as above; conditions: rating scale 0-100 (0 no damage, 100 complete death), 14 days after application
Outline: as §2

[16] = system: barnyardgrass (Echinochloa crus-galli, ECHCG); test: as above; conditions: rating scale 0-100 (0 no damage, 100 complete death), 14 days after application
Outline: as §2

[17] = system: johnsongrass (Sorghum halepense, SORHA); test: as above; conditions: rating scale 0-100 (0 no damage, 100 complete death), 14 days after application
Outline: as §2

[18] = system: velvetleaf (Abutilon theophrasti, ABUTH); test: as above; conditions: rating scale 0-100 (0 no damage, 100 complete death), 14 days after application
Outline: as §2

[19] = system: sicklepod (Cassia obtusifolia, CASOB); test: as above; conditions: rating scale 0-100 (0 no damage, 100 complete death), 14 days after application
Outline: as §2

[20] = system: redroot pigweed (Amaranthus retroflexus, AMARE); test: Pre-emerge test, greenhouse herbicide activity screening; conditions: rating scale 0-100, 14 days after application
Outline: (§3)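 Rating: 0–100 visual injury, 14 DAA. Application: acetone, 187 l/ha, 15–1000 g ai/ha, flat-fan track sprayer with nozzle 40–45 cm above soil or canopy. Post-emerge runs used 0.25% v/v surfactant on 2–3 leaf plants.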

[21] = system: upland rice (Oryza sp., var. Tebonnet, RICE); test: Pre-emerge test, crop safety; conditions: rating scale 0-100, 14 days after application
Outline: as §3

[22] = system: field corn (Zea mays L., var. Dekalb 535, CORN); test: Pre-emerge test, crop safety; conditions: rating scale 0-100, 14 days after application
Outline: as §3

C#CCOC(=O)C(Cl)Cc1c(OC)c(Cl)cc(F)c1-n1c(=O)cc(C(F)(F)F)n(C)c1=O (single isomer, unassigned) [14-20]
90: Pre-emerge herbicidal activity, phytotoxicity rating DIGSA ([6]; 250 g ai/ha) | Pre-emerge herbicidal activity, phytotoxicity rating ABUTH ([9]; 250 g ai/ha) | Post-emerge Herbicidal Activity, phytotoxicity rating SORHA ([17]; Rate 250 g ai/ha)
80: Post-emerge phytotoxicity rating CORN (crop damage) ([2]; Rate 250 g ai/ha) | Pre-emerge herbicidal activity, phytotoxicity rating CHEAL ([4]; 250 g ai/ha) | Post-emerge Herbicidal Activity, phytotoxicity rating CHEAL ([13]; Rate 63 g ai/ha)
99: Post-emerge Herbicidal Activity, phytotoxicity rating ABUTH ([18]; Rate 63 g ai/ha)
0: Post-emerge phytotoxicity rating RICE (crop damage) ([1]; Rate 63 g ai/ha) | Post-emerge phytotoxicity rating CORN (crop damage) ([2]; Rate 63 g ai/ha) | Pre-emerge herbicidal activity, phytotoxicity rating IPOHE ([3]; 63 g ai/ha) | Pre-emerge herbicidal activity, phytotoxicity rating IPOHE ([3]; 250 g ai/ha) | Pre-emerge herbicidal activity, phytotoxicity rating CHEAL ([4]; 63 g ai/ha) | Pre-emerge herbicidal activity, phytotoxicity rating SETVI ([5]; 63 g ai/ha) | Pre-emerge herbicidal activity, phytotoxicity rating DIGSA ([6]; 63 g ai/ha) | Pre-emerge herbicidal activity, phytotoxicity rating ECHCG ([7]; 63 g ai/ha) | Pre-emerge herbicidal activity, phytotoxicity rating SORHA ([8]; 63 g ai/ha) | Pre-emerge herbicidal activity, phytotoxicity rating ABUTH ([9]; 63 g ai/ha) | Pre-emerge herbicidal activity, phytotoxicity rating CASOB ([10]; 63 g ai/ha) | Pre-emerge herbicidal activity, phytotoxicity rating CASOB ([10]; 250 g ai/ha) | Post-emerge Herbicidal Activity, phytotoxicity rating SETVI ([14]; Rate 63 g ai/ha) | Post-emerge Herbicidal Activity, phytotoxicity rating CASOB ([19]; Rate 63 g ai/ha) | Pre-emerge phytotoxicity rating, crop damage RICE ([21]; 63 g ai/ha) | Pre-emerge phytotoxicity rating, crop damage RICE ([21]; 250 g ai/ha) | Pre-emerge phytotoxicity rating, crop damage CORN ([22]; 63 g ai/ha)
40: Pre-emerge herbicidal activity, phytotoxicity rating ECHCG ([7]; 250 g ai/ha)
20: Pre-emerge herbicidal activity, phytotoxicity rating SORHA ([8]; 250 g ai/ha)
10: Post-emerge phytotoxicity rating RICE (crop damage) ([1]; Rate 250 g ai/ha) | Post-emerge Herbicidal Activity, phytotoxicity rating SORHA ([17]; Rate 63 g ai/ha)
100: Post-emerge Herbicidal Activity, phytotoxicity rating AMARE ([11]; Rate 250 g ai/ha) | Post-emerge Herbicidal Activity, phytotoxicity rating CHEAL ([13]; Rate 250 g ai/ha) | Post-emerge Herbicidal Activity, phytotoxicity rating DIGSA ([15]; Rate 63 g ai/ha) | Post-emerge Herbicidal Activity, phytotoxicity rating DIGSA ([15]; Rate 250 g ai/ha) | Post-emerge Herbicidal Activity, phytotoxicity rating ECHCG ([16]; Rate 63 g ai/ha) | Post-emerge Herbicidal Activity, phytotoxicity rating ECHCG ([16]; Rate 250 g ai/ha) | Post-emerge Herbicidal Activity, phytotoxicity rating ABUTH ([18]; Rate 250 g ai/ha) | Pre-emerge herbicidal activity, phytotoxicity rating AMARE ([20]; 250 g ai/ha)
30: Pre-emerge herbicidal activity, phytotoxicity rating SETVI ([5]; 250 g ai/ha)
70: Post-emerge Herbicidal Activity, phytotoxicity rating IPOHE ([12]; Rate 250 g ai/ha)
95: Post-emerge Herbicidal Activity, phytotoxicity rating AMARE ([11]; Rate 63 g ai/ha)
50: Post-emerge Herbicidal Activity, phytotoxicity rating IPOHE ([12]; Rate 63 g ai/ha) | Post-emerge Herbicidal Activity, phytotoxicity rating SETVI ([14]; Rate 250 g ai/ha) | Post-emerge Herbicidal Activity, phytotoxicity rating CASOB ([19]; Rate 250 g ai/ha) | Pre-emerge herbicidal activity, phytotoxicity rating AMARE ([20]; 63 g ai/ha) | Pre-emerge phytotoxicity rating, crop damage CORN ([22]; 250 g ai/ha)
